Measurements from patent publication US20140329903A1, “TREATMENT OF NEURODEGENERATIVE DISEASES” (ACADIA PHARMACEUTICALS INC., priority 2011, published 2014).
“And” between values parts separate entries of the source, which are not always exact repeats. Equal values may be shown once. Read-outs that look alike come from different tables or passages of the source.

Legend:
[1] = tested on: NGFI-B response element, NBRE; assay: Reporter gene transcription assay pNBRE; assay type: cell-based
Text: (§1) We have enabled assays to detect ligand-induced gene transcription (reporter gene assays) in order to confirm results obtained in BRET2 assays.

NBRE & Nurr1 = assay: Reporter gene transcription assay pNBRE & Nurr1; assay type: cell-based
Text: as §1

[2] = tested on: Retinoid X Receptor (RXR) response element RXRE; assay: Reporter gene transcription assay pRXRE; assay type: cell-based
Text: as §1

RXRE & Nurr1 = assay: Reporter gene transcription assay pRXRE & Nurr1; assay type: cell-based
Text: as §1

RARE & Nurr1 = assay: Reporter gene transcription assay pRARE & Nurr1; assay type: cell-based
Text: as §1

6OHDA lesion of the SNc = assay: Neuron regeneration after 6OHDA lesion, compared with Day 3; assay type: in vivo, rats; details: 1 mM, 0.25 μL/hr i.c.v. for 28 days beginning 72 hours after 6OHDA lesion
Method: . […]. […]. Data were analyzed with one-way ANOVAs followed by post hoc Tukey's multiple comparisons test. * indicates a significant difference from Sham, p<0.05; + indicates a significant difference from vehicle/6OHDA, p<0.05; ´ indicates a significant difference from Day 3, p<0.05.

[3] = tested on: rat primary dopaminergic neurons; assay: Restorative effect after MPP+ injury in primary mesencephalic cultures; assay type: cell-based
Method: BDNF was used as a positive control in this study.
Rat dopaminergic neurons were cultured as described by Schinelli et al., 1988. Briefly pregnant female rats of 15 days gestation were killed by cervical dislocation (Rats Wistar; Janvier) and the foetuses removed from the uterus. The embryonic midbrains were removed and placed in ice-cold medium of Leibovitz (L15; PAN) containing 2% of Penicillin-Streptomycin (PS; Invitrogen) and 1% of bovine serum albumin (BSA; PAN). Only the ventral portions of the mesencephalic flexure were used for the cell preparations as this is the region of the developing brain rich in dopaminergic neurons. The midbrains were dissociated by trypsinisation for 20 min at 37° C. (Trypsin EDTA 1×; PAN) diluted in PBS without calcium and magnesium. The reaction was stopped by the addition of Dulbecco's modified Eagle's medium (DMEM; PAN) containing DNAase I grade II (0.5 mg/ml; PAN) and 10% of fetal calf serum (FCS; Gibco). Cells were then mechanically dissociated by 3 passages through a 10 ml pipette. Cells were then centrifuged at 180×g for 10 min at +4° C. on a layer of BSA (3.5%) in L15 medium. The supernatant was discarded and the cells of pellet were re-suspended in a defined culture medium consisting of Neurobasal (Gibco) supplemented with B27 (2%; Gibco), L-glutamine (0.2 mM; Invitrogen) 2% of PS solution and 10 ng/ml BDNF (PAN) and 1 ng/ml GDNF. (PAN) Viable cells were counted in a Neubauer cytometer using the trypan blue exclusion test. The cells were seeded at a density of 40000 cells/well in 96 well-plates (wells were pre-coated with poly-L-lysine (greiner) and were cultured at 37° C. in a humidified air (95%)/CO2 (5%) atmosphere. Half of the medium was changed every 2 days with fresh medium.
Briefly, on day 6 of culture, the medium was removed and fresh medium was added, without or with MPP+ at 4 μM. […] In all wells, the final concentrations were in 0.1% DMSO. After permeabilization with 0.1% saponin (Sigma), cells were incubated with mouse monoclonal primary against tyrosine hydroxylase antibody (TH, Sigma) to stain specifically dopaminergic neurons. […] The number of TH neurons and total neurite of TH neurons were measured in each well.
For each condition, 2×10 pictures per well were taken in the same condition using InCell Analyzer™ 1000 (GE Healthcare) with 10× magnification. The analyses were automatically done using developer software (GE Healthcare) to measure the total number of TH positive neurons. Two means of 10 pictures were automatically performed by well. Data were expressed in percentage of control condition. […]
For each condition, 10 pictures per well were taken in the same condition using InCell Analyzer™ 1000 (GE Healthcare) with 10× magnification. […] 6 wells per conditions were analyzed. […]

[4] = Serum triglyceride and T4 levels (side effects); assay type: in vivo, rats
Text: At the end of the indicated dosing periods, blood was harvested, and the serum analyzed for triglyceride (FIG. 17A) and T4 levels (FIG. 17B) by IDEXX Corporation.

[5] = human, plasma, po
[6] = tested on: cancer cell lines HN9N and HN21P; details: cited from earlier work
[7] = NDA #21055, cited from earlier work
[8] = i.c.v., s.c. and 1 mg/kg/day p.o.

C=C(c1ccc(C(=O)O)cc1)c1cc2c(cc1C)C(C)(C)CCC2(C)C [Bexarotene, bexarotene]
EC50 [1]: 20 nM | Eff % ([1]; pNBRE, normalized to the response of 9-cis retinoic acid): 28% | EC50 (NBRE & Nurr1): 17 nM | Eff % (NBRE & Nurr1; pNBRE & Nurr1, normalized to 9-cis retinoic acid): 83% | EC50 [2]: 144 nM | Eff % ([2]; pRXRE, normalized to 9-cis retinoic acid): 44% | EC50 (RXRE & Nurr1): 41 nM | Eff % (RXRE & Nurr1; pRXRE & Nurr1, normalized to 9-cis retinoic acid): 65% | EC50 (RARE & Nurr1): 26 nM | Eff % (RARE & Nurr1; pRARE & Nurr1, normalized to 9-cis retinoic acid): 23% | number of TH positive cells, cell size and colocalization of TH and Neurotrace, vs Lesion/Veh (6OHDA lesion of the SNc): significantly improved | same TH measures compared with animals sacrificed 3 days after lesion (start of treatment) (6OHDA lesion of the SNc): significantly improved | neurotrophic effect compared with BDNF ([3]; 300 nM, after 24 h MPP+ 4 μM): as high as the one of BDNF | length of TH neurite ([3]; 100 and 300 nM, after 24 h MPP+ 4 μM): significant effect | total number of TH neurons ([3]; all tested concentrations (0.3-300 nM), 48 h, applied after 24 h MPP+ 4 μM): increase | serum triglyceride levels vs vehicle ([4]; 1 mg/kg/day P.O., 5 days): significantly increased compared to vehicle | serum triglyceride levels vs vehicle ([4]; i.c.v. continuous infusion 0.006 mg/kg/day, up to 8 days): not significantly different to vehicle treated animals | T4 levels compared with 100 mg/kg/day p.o. [4, 8]: significantly higher | serum triglyceride levels compared with 100 mg/kg/day p.o. [4, 8]: significantly lower | serum triglyceride levels vs vehicle ([4]; s.c. continuous infusion 0.25 mg/kg/day, up to 8 days): not significantly different to vehicle treated animals | AUC [5]: 0.7 to 1.3 µM·h | tumor growth in nude mice injected with HN9N and HN21P ([6]; 60 mg/kg/day oral, NDA #21055): effective in preventing tumor growth | Effective anti-cancer dose (mice) ([6]; oral, Targretin NDA #21055): 60 mg/kg/day (mice) | plasma AUC ([7]; p.o. 3 mg/kg/day): 4.4 µM·h | plasma AUC ([7]; p.o. 10 mg/kg/day): 14.1 µM·h | plasma AUC ([7]; p.o. 30 mg/kg/day, 30 mg/kg/day): 24.3 μM * hr and 24 μM*hr μM * hr and 24 μM * hr | plasma AUC ([7]; p.o. 100 mg/kg/day, 100 mg/kg/day): 42.1 μM * hr and 42 μM*hr μM * hr and 42 μM * hr
